The text below walks through data of US7605163B2, “Benzoyl-piperazine derivatives” (Hoffmann-La Roche Inc., priority 2003, dated 2009).

The target of the experiment is T1, mGlyT-1b (Mus musculus, UniProt P28571).
T1 construct: host or cells: Flp-in-CHO cells
T1 sequence (P28571 1-651 isoform P28571-2): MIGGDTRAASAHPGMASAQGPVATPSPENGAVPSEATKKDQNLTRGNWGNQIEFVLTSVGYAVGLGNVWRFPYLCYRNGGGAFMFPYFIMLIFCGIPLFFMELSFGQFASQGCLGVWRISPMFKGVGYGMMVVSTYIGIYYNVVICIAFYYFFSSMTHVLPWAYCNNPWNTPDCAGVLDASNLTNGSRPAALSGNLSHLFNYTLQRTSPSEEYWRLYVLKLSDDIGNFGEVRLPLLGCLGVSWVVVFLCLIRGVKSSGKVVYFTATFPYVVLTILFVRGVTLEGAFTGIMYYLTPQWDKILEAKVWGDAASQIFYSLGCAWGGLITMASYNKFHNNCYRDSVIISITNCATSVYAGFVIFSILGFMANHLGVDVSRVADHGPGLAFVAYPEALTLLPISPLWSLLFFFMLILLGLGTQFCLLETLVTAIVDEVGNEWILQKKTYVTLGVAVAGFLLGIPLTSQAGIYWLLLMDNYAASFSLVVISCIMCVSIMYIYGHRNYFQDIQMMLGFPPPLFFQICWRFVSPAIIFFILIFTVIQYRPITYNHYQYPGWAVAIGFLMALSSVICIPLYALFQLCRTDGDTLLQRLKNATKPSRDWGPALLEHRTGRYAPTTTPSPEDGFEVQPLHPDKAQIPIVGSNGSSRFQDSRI
Nature of the experiment: Glycine Uptake Inhibition Assay (mGlyT-1b). Format: cell-based. The conditions noted are these: [3H]-glycine uptake inhibition at GlyT-1, Flp-in-CHO cells transfected with mGlyT-1b cDNA. The essentials: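 Flp-in CHO cells stably expressing mouse GlyT-1b preincubated 20 min at 22 °C with inhibitor in pH 7.4 uptake buffer, then given 60 nM [3H]-glycine plus 25 μM unlabelled glycine. Cell radioactivity counted by scintillation; nonspecific uptake defined with 10 mM glycine; IC50 from concentration range.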

In the case of `CNS(=O)(=O)c1ccc(OCC(C)(C)C)c(C(=O)N2CCN(c3ccc(C(F)(F)F)cc3)CC2)c1` [compound 525], the IC50 is 21 nM.

For `CNS(=O)(=O)c1ccc(OC(C)C)c(C(=O)N2CCN(c3ccc(C(F)(F)F)cc3)CC2)c1` [compound 526], the IC50 is 9 nM.

In the case of `CNS(=O)(=O)c1ccc(OC2CCCC2)c(C(=O)N2CCN(c3ccc(C(F)(F)F)cc3)CC2)c1` [compound 527], the IC50 is 6 nM.

`CNS(=O)(=O)c1ccc(OC2CCC2)c(C(=O)N2CCN(c3ccc(C(F)(F)F)cc3)CC2)c1` [compound 528]: inhibition was half-maximal at 15 nM (IC50).

`CNS(=O)(=O)c1ccc(OCC2CC2)c(C(=O)N2CCN(c3ccc(C(F)(F)F)cc3)CC2)c1` [compound 529] came in with an IC50 of 13 nM.

`CNS(=O)(=O)c1ccc(OCC2CCC2)c(C(=O)N2CCN(c3ccc(C(F)(F)F)cc3)CC2)c1` [compound 530]: the 50% inhibitory concentration (IC50) is 5.7 nM. Compared with the last compound, the IC50 is about 2.3-fold lower.

`CNS(=O)(=O)c1ccc(OCCC(F)(F)F)c(C(=O)N2CCN(c3ccc(C(F)(F)F)cc3)CC2)c1` [compound 531] showed a concentration for half-maximal inhibition (IC50) of 28 nM. This IC50 is about 4.9-fold higher than that of the compound before.

As for `CNS(=O)(=O)c1ccc(OCC(F)(F)F)c(C(=O)N2CCN(c3ccc(C#N)cc3F)CC2)c1` [compound 534], the IC50 is 49 nM. This IC50 lies about 1.8-fold higher than the previous one.

Consider `CNS(=O)(=O)c1ccc(OCC(F)(F)F)c(C(=O)N2CCN(c3ccc(C(F)(F)F)cc3)CC2)c1` [compound 537], for which the IC50 was 30 nM.

On to `N#Cc1ccc(N2CCN(C(=O)c3cc(S(=O)(=O)C4CC4)ccc3OC3CCCC3)CC2)c(F)c1` [compound 546], for which the IC50 stood at 35 nM.

Compound `COCCS(=O)(=O)c1ccc(N2CCN(C(=O)c3cc(S(C)(=O)=O)ccc3OC(C)C)CC2)c(F)c1` [compound 561] returned an IC50 of 38 nM.

With `CCS(=O)(=O)c1ccc(N2CCN(C(=O)c3cc(S(C)(=O)=O)ccc3OCC3CC3)CC2)c(F)c1` [compound 562], the IC50 was found to be 44 nM.

As for `CCS(=O)(=O)c1ccc(N2CCN(C(=O)c3cc(S(C)(=O)=O)ccc3OC3CCCC3)CC2)c(F)c1` [compound 563], the IC50 is 43 nM.

With `CCS(=O)(=O)c1ccc(N2CCN(C(=O)c3cc(S(C)(=O)=O)ccc3OC3CCCCC3)CC2)c(F)c1` [compound 564], the IC50 stood at 41 nM.

With `CCS(=O)(=O)c1ccc(N2CCN(C(=O)c3cc(S(C)(=O)=O)ccc3OCC(C)C)CC2)c(F)c1` [compound 566], half-maximal inhibition (IC50) required 30 nM.

On to `CC(C)Oc1ccc(S(C)(=O)=O)cc1C(=O)N1CCN(c2ccc(S(=O)(=O)C3CCC3)cc2F)CC1` [compound 570], for which the IC50 was determined as 46 nM.

With `CC(C)Oc1ccc(S(C)(=O)=O)cc1C(=O)N1CCN(c2ccc(S(=O)(=O)C3CCCC3)cc2F)CC1` [compound 571], the IC50 came out at 50 nM.

`CS(=O)(=O)c1ccc(OC2CCCC2)c(C(=O)N2CCN(c3ccc(S(=O)(=O)C4CC4)cc3F)CC2)c1` [compound 573] showed an IC50 of 37 nM.

`CS(=O)(=O)c1ccc(OC2CCCCC2)c(C(=O)N2CCN(c3ccc(S(=O)(=O)C4CC4)cc3F)CC2)c1` [compound 574]: the IC50 came to 34 nM. The IC50 values of the last two compounds are within 1.5-fold of each other.

Turning to `CS(=O)(=O)c1ccc(OC2CCC2)c(C(=O)N2CCN(c3ccc(S(=O)(=O)C4CC4)cc3F)CC2)c1` [compound 576], the IC50 was determined as 39 nM.

In the case of `CC(C)COc1ccc(S(C)(=O)=O)cc1C(=O)N1CCN(c2ccc(S(=O)(=O)C3CC3)cc2F)CC1` [compound 578], half-maximal inhibition (IC50) was put at 41 nM.

The compound `CC(C)Oc1ccc(S(C)(=O)=O)cc1C(=O)N1CCN(c2ccc(S(=O)(=O)C3CCCCC3)cc2F)CC1` [compound 589] yielded an IC50 of 32 nM.

As to `CC(C)Oc1ccc(S(C)(=O)=O)cc1C(=O)N1CCN(c2cc(F)c(S(=O)(=O)C3CC3)cc2F)CC1` [compound 595], the IC50 came to 49 nM. Compared with the last compound, the IC50 is about 1.5-fold higher.

For `CC(C)(Oc1ccc(S(C)(=O)=O)cc1C(=O)N1CCN(c2ncc(C(F)(F)F)cc2F)CC1)C(F)(F)F` [compound 637], inhibition was half-maximal at 47 nM (IC50). The IC50 values of the last two compounds are within 1.5-fold of each other.
